# Test results reported in US20240156800A1, “EP300 DEGRADER AND USES THEREOF IN NEUROBLASTOMA” (DANA-FARBER CANCER INSTITUTE, INC., priority 2021, published 2024).
# Key:
# [1] = system: Kelly, NGP and SIMA NB cells; test: Cell Titer-Glo cell viability / growth assay; assay type: cell-based, human; details: 6 days, compared with (S,S) stereoisomer and A485
# Description: (§1) Cells were infected with lentiviruses encoding sgRNAs or treated with compounds as described. Colony assays were performed by replating cells at 500 cells per well in 6-well dishes and grown in regular growth media for 10 d before 100% methanol fixation, 0.05% crystal violet staining, and quantitation. Experiments were completed in triplicate; data shown are the average of three independent experiments. Cell Titer-Glo® assay was performed as per the manufacturer's instructions (Promega®). Briefly, 1000 cells/well were plated into 96-well plates and treated with a range of compound dosing. Cell viability was measured at the noted time points based on luminescence by the Cell Titer-Glo® assay (Promega®) and read on an Envision 2104 (PerkinElmer®, USA) according to the manufacturer's protocol.
# His-tagged CRBN = His-tagged CRBN (Homo sapiens, UniProt Q96SW2); test: AlphaLISA assay with biotinylated pomalidomide and His-tagged CRBN; assay type: binding; details: competition with biotinylated pomalidomide
# Description: To determine whether JQAD1 interacts with the E3 ligase receptor CRBN, the AlphaLISA® platform was used to perform AlphaLISA® fluorescent assays using biotinylated pomalidomide bound to beads and His-tagged CRBN (Yasgar et al. Methods Mol. Biol. 1439:77-98 (2016)). […] Next, biotinylated JQAD1 (Biotin-JQAD1, Scheme 2) was synthesized and incubated with Kelly cell lysates, followed by streptavidin-based purification. […] PROTAC®s may acquire preferential specificity for one of two possible target enzymes due to restricted three-dimensional interactions, as noted in Burslem and Crews, Cell 181:102-14 (2020).
# Assays were performed with minimal modifications from the manufacturer's protocol (PerkinElmer®, USA). Briefly, a 2× solution of components with final concentrations of CRBN-DDB1 at 50 nM, Ni-coated Acceptor Beads at 20 μg/ml, and 15 nM biotinylated-pomalidomide were added in […] to 384-well plates (AlphaPlate-384, PerkinElmer®, USA). 100 nL of compound in DMSO from stock plates were added by pin transfer using a Janus Workstation (PerkinElmer®, USA). Streptavidin-coated donor beads (20 μg/ml final) were added to the solution, followed by incubation at room temperature for 1 hour, and reading on an Envision 2104 (PerkinElmer®, USA), by the manufacturer's protocol.
# H3K27ac = H3K27ac ChIP-seq with Drosophila spike-in (ChIP-RX) in Kelly cells; assay type: cell-based, human; details: 500 nM
# Description: ChIP-seq was performed as previously described for cell lines (Durbin et al. Nat. Genet. 50:1240-6 (2018)). The following antibodies were used for ChIP: EP300 (Abcam, ab10485), CBP (#7389, Cell Signaling Technology®), TFAP2β (#2509, Cell Signaling Technology®), ASCL1 (sc-374104, Santa Cruz Biotechnology) and H3K27ac (Abcam ab4729). For each ChIP, 10 μg of antibody was added to 3 ml of sonicated nuclear extract. Illumina® sequencing, library construction, and ChIP-seq analysis methods were performed as described in Mansour et al. Science 346, 1373-7 (2014) and Sanda et al. Cancer Cell 22:209-21 (2012). Remaining ChIP-seq and assay for transposase-accessible chromatin (ATAC)-sequencing data were extracted from previously published datasets (GSE120074, GSE94822, GSE65664) available through the GEO portal. For experiments involving analysis of quantitative changes in H3K27ac, pellets of neuroblastoma cells were externally spiked in with similarly fixed and processed S2 cells at 1:10 ratio, prior to sonication.
# ChIP-RX reads from Kelly cells treated with 500 nM JQAD1 were aligned in multiple steps. Reads were aligned to the dm6 revision of the D. melanogaster reference genome with -k 1 —chunkmbs 256—best to identify spiked-in DNA. Counts of fly reads were determined by counting unique read names in the aligned read file. Remaining non-fly reads were aligned to the hg19 revision of the human reference genome with parameters -k 2 -m 2 -chunkmbs 256 -best -175. Visualization files were constructed using macs 1.4 with parameters -w -S -space=50 -nomodel -shiftsize=200 to generate wiggle files, which were subsequently normalized by the millions of fly-mapped reads in the corresponding sample.
# H3K27ac ChIP-RX read coverage of stitched enhancers was quantified using bamToGFF with parameter -t TRUE and divided by the millions of mapped reads, from which read-per-million values from the corresponding input experiment was subtracted. These values were used to create fold-changes during the treatment time-course.
# [2] = system: Kelly-Cas9 control or CRBN knockout cells; test: CellTiter-Glo assay of Kelly-Cas9 control or CRBN knockout cells; assay type: cell-based, human; details: range of doses, seven days
# Description: as §1
# sgRNAs targeting individual genes were subcloned by standard methodologies within pLKO.5-EFGP. Kelly, SIMA, BE2C, and NGP cells were infected with lenticas9 followed by blasticidin selection. Stable expression of cas9 was established by western blotting of protein lysates using cas9 antibody (Cell Signaling Technology®). Following infection of pLKO.5-EGFP-sgRNA lentivirus, cells were cultured for the identified times prior to evaluation. BE2C cells were infected with pLC-zsgreen or pLC-CRBN lentiviruses and selected using 500 μg/mL hygromycin (Invitrogen™)
# CBP = target: T1, CBP (Homo sapiens, UniProt Q92793); test: Immunohistochemistry of CBP in Kelly cell xenografts; assay type: in vivo; details: 40 mg/Kg once daily
# T1 construct: Cells growing in culture were lysed for whole cell lysates; endogenous in cells; host or cells: Kelly, NGP, SIMA, BE2C neuroblastoma cells; Kelly xenografts in NSG mice
# Description: Separately, eight animals were xenografted as described above, and treated with vehicle (n=4) or JQAD1 (n=4) at 40 mg/kg IP daily for 14 days. These animals were sacrificed at day 14, following which tumor was extracted, and divided for immunohistochemical analysis or analysis of RNA expression by RNA sequencing (RNA-seq). Immunohistochemistry was performed on the Leica® Bond™ III automated staining platform. Antibody EP300 from Cell Signaling Technology®, catalog number 86377, clone D8Z4E, was run at 1:50 dilution using the Leica® Biosystems Refine Detection Kit with citrate antigen retrieval. Antibody KAT3A/CBP (catalog number ab2832, polyclonal, Abcam) was run at 1:200 using the Leica® Biosystems Refine Detection Kit with ethylenediaminetetraacetic acid (EDTA) antigen retrieval.
# T1 sequence (Q92793 whole entry): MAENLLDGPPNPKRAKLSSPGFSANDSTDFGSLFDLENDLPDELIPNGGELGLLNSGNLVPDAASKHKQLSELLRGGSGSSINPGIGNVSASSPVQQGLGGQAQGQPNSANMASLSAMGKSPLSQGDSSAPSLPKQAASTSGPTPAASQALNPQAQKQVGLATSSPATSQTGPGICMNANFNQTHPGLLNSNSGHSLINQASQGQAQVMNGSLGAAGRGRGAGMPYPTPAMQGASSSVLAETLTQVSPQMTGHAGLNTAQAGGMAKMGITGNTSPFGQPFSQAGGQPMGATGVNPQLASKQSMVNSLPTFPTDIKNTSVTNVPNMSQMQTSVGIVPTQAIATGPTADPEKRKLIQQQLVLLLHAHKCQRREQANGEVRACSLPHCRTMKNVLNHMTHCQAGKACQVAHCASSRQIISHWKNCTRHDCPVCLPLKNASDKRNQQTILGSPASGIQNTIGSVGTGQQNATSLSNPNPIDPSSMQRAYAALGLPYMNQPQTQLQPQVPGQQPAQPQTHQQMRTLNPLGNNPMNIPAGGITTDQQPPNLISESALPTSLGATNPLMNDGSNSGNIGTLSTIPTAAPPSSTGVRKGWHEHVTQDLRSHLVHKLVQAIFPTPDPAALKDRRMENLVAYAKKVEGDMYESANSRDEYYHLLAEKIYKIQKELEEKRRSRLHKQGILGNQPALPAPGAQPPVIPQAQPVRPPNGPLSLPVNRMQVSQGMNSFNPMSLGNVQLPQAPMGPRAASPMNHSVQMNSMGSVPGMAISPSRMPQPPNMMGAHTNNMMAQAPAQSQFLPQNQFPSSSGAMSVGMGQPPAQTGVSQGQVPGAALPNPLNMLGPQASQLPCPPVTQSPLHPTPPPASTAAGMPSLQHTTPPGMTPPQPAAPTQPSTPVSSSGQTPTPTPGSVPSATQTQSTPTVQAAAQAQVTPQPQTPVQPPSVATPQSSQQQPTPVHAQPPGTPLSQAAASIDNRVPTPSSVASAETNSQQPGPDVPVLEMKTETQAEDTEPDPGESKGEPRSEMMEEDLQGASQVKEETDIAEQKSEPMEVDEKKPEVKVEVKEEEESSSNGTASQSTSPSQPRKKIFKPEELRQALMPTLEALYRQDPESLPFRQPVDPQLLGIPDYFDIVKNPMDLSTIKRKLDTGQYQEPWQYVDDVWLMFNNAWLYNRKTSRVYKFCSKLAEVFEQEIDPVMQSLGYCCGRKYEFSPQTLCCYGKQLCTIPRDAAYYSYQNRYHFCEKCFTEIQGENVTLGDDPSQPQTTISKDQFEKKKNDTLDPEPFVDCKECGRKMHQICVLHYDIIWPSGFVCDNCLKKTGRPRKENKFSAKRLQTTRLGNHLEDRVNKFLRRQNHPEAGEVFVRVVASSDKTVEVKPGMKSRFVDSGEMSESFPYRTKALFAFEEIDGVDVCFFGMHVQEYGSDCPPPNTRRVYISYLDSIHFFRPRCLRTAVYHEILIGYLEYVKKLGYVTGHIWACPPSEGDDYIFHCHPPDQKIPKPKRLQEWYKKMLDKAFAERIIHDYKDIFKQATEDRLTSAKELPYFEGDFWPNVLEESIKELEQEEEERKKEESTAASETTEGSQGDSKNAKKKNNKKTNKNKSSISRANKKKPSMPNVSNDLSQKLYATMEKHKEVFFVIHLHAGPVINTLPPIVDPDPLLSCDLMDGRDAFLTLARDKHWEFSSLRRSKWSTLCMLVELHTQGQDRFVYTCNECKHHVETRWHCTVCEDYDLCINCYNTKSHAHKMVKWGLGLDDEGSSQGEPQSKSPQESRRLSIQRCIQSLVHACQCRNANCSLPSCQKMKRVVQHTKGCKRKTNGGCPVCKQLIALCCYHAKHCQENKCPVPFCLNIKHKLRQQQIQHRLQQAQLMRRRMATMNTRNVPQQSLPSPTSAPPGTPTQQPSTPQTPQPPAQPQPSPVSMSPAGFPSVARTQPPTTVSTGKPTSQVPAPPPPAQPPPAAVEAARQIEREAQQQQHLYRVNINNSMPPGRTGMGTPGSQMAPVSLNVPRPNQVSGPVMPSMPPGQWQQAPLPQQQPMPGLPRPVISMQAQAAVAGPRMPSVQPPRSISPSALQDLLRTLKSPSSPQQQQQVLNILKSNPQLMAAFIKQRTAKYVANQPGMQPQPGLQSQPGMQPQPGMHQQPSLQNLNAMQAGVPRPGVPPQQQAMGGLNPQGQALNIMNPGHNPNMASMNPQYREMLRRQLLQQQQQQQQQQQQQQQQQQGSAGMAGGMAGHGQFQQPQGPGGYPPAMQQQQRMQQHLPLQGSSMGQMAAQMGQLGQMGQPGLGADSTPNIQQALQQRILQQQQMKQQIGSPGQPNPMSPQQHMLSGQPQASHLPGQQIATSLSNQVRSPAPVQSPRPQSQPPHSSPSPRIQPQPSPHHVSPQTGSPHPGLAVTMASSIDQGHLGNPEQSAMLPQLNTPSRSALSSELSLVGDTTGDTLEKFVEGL
# Chain of His-tagged CRBN (Q96SW2 whole entry): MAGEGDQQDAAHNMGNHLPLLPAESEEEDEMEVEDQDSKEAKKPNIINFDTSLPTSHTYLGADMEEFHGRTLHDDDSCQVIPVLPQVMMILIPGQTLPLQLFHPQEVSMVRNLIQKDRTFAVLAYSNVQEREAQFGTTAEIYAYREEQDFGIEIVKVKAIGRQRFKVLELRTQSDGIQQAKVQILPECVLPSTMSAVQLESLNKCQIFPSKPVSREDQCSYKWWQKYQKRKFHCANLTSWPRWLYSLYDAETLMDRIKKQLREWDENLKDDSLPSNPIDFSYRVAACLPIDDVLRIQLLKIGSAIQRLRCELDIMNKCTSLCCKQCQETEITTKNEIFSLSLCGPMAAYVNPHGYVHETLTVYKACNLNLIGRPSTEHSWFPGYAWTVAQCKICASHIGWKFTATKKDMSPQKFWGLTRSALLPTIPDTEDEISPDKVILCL
# Chain of His-tagged CRBN (Q16531 whole entry partner): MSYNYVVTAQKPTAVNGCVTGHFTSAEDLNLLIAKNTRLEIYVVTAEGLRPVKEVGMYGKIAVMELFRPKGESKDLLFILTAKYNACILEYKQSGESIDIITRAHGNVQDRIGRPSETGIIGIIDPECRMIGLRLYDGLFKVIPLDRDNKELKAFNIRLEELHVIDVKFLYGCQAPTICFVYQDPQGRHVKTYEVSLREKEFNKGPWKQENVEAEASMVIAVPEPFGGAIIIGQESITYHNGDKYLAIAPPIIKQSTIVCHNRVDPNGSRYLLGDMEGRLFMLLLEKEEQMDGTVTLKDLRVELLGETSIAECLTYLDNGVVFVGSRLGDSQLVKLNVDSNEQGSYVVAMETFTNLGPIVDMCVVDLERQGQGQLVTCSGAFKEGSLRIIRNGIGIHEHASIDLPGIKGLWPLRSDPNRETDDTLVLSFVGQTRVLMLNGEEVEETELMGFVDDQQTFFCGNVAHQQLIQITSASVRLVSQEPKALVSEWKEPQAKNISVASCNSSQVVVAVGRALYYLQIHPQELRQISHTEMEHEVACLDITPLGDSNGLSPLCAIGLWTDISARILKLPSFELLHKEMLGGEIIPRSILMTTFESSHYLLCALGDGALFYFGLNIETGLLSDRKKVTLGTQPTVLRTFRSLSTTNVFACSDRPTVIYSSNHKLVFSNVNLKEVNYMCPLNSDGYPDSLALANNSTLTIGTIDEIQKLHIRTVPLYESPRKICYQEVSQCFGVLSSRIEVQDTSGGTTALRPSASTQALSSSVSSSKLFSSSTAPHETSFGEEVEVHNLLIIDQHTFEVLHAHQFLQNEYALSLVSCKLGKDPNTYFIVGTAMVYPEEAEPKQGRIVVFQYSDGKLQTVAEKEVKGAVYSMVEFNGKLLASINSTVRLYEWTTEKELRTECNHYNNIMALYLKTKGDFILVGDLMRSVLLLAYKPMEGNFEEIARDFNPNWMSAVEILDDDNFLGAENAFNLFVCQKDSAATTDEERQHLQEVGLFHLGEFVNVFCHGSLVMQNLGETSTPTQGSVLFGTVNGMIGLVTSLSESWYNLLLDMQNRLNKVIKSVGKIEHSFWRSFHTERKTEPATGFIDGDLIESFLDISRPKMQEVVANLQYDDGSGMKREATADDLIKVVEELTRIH
compound,measurement,setting,value
"C[C@H](N(Cc1ccc(F)cc1)C(=O)CN1C(=O)O[C@@]2(CCc3cc(NC(=O)CCCCCCCCCCCNc4ccc5c(c4)C(=O)N(C4CCC(=O)NC4=O)C5=O)ccc32)C1=O)C(F)(F)F (stereo partly drawn) [JQAD1, 12-((2-(2,6-dioxopiperidin-3-yl)-1,3-dioxoisoindolin-5-yl)amino)-N-((R)-3′-(2-((4-fluorobenzyl)((S)-1,1,1-trifluoropropan-2-yl)amino)-2-oxoethyl)-2′,4′-dioxo-2,3-dihydrospiro[indene-1,5′-oxazolidin]-5-yl)dodecanamide]",IC50 in intact NB cells (comparison),[1],lowest IC50 concentration
same,interaction with CRBN,His-tagged CRBN,efficiently interacted with CRBN
same,H3K27ac signal at 6 h versus 0 h,H3K27ac; 6 h,no consistent change in acetylation
same,H3K27ac signal genome-wide at 24 h,H3K27ac; 24 h,"general loss of H3K27ac signal genome-wide, which was most pronounced at densely acetylated super-enhancers"
same,global suppression of all enhancers (H3K27ac marked sites),H3K27ac; 24 h versus untreated,approximately 2 fold
same,growth of CRBN-knockout Kelly cells,[2],resistant
same,growth of control-edited Kelly cells,[2],potently killed
same,CBP immunostaining of tumors,CBP,CBP immunostaining was retained
